Experimental data taken from patent US5556744A, “Methods and compositions for diagnosing and treating certain HIV infected patients” (The Trustees of the University of Pennsylvania, priority 1994, dated 1996).

What was measured:
[1] = test system: maternal sera (antibodies); experiment: ELISA peptide-binding of maternal sera (Example 6); parameters: species or system human; details: for Number of Non-Transmitters which bound to peptide / Percent of Non-Transmitters which bound to peptide: N = 12; for Number of Transmitters which bound to peptide / Percent of Transmitters which bound to peptide: N = 4
How it was run: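 HIV-1 envelope peptides averaging 16 amino acids, covering external and transmembrane glycoprotein, were probed by ELISA. Third-trimester maternal sera, classed as transmitter or non-transmitter by child diagnosis, were each run on at least 40 peptides. Values give percent of sera binding a peptide.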

[2] = test system: maternal HIV+ sera (antibodies); experiment: RIA / ELISA binding of maternal HIV+ sera to gp120 and gp41 peptides (Example 3); parameters: species or system human
How it was run: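 Maternal sera, diluted 1:50 and 1:500, were bound overnight at 4°C to peptides immobilized at 10 μg/ml (pH 9.6 carbonate) and blocked with 1% BSA. Read-out was ¹²⁵I-labelled anti-human IgG counts or HRP-TMB OD450. Signal with peptide minus without was expressed relative to seronegative serum.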

[3] = Serum No. 1, Non-Transmission Group
[4] = Serum No. 2, Non-Transmission Group
[5] = Serum No. 3, Non-Transmission Group
[6] = Serum No. 4, Transmission Group
[7] = Serum No. 5, Transmission Group
[8] = Serum No. 6, Non-Transmission Group
[9] = Serum No. 7, Non-Transmission Group
[10] = Serum No. 8, Non-Transmission Group
[11] = Serum No. 9, Non-Transmission Group
[12] = Serum No. 10, Transmission Group
[13] = Serum No. 11, Non-Transmission Group
[14] = Serum No. 12, Non-Transmission Group
[15] = Serum No. 13, Transmission Group
[16] = Serum No. 14, Transmission Group
[17] = Serum No. 15, Transmission Group
[18] = Serum No. 16, Non-Transmission Group
[19] = Serum No. 17, Non-Transmission Group
[20] = Serum No. 18, Non-Transmission Group
[21] = Serum No. 19, Transmission Group
[22] = Serum No. 20, Non-Transmission Group

Row | Sequence | Number of Non-Transmitters which bound to peptide [1] | Percent of Non-Transmitters which bound to peptide [1] [%] | Number of Transmitters which bound to peptide [1] | Percent of Transmitters which bound to peptide [1] [%] | Binding of maternal HIV+ serum to peptide (sera/NHS ratio) [2, 3] | Binding of maternal HIV+ serum to peptide (sera/NHS ratio) [2, 4] | Binding of maternal HIV+ serum to peptide (sera/NHS ratio) [2, 5] | Binding of maternal HIV+ serum to peptide (sera/NHS ratio) [2, 6] | Binding of maternal HIV+ serum to peptide (sera/NHS ratio) [2, 7] | Binding of maternal HIV+ serum to peptide (sera/NHS ratio) [2, 8] | Binding of maternal HIV+ serum to peptide (sera/NHS ratio) [2, 9] | Binding of maternal HIV+ serum to peptide (sera/NHS ratio) [2, 10] | Binding of maternal HIV+ serum to peptide (sera/NHS ratio) [2, 11] | Binding of maternal HIV+ serum to peptide (sera/NHS ratio) [2, 12] | Binding of maternal HIV+ serum to peptide (sera/NHS ratio) [2, 13] | Binding of maternal HIV+ serum to peptide (sera/NHS ratio) [2, 14] | Binding of maternal HIV+ serum to peptide (sera/NHS ratio) [2, 15] | Binding of maternal HIV+ serum to peptide (sera/NHS ratio) [2, 16] | Binding of maternal HIV+ serum to peptide (sera/NHS ratio) [2, 17] | Binding of maternal HIV+ serum to peptide (sera/NHS ratio) [2, 18] | further results
1 | FSYHRLRDLLLIVTR [Peptide 132] | 1 | 83 | 0 | 0 | + (which value is between 2 to 3) | - (specific OD450 or cpm of sera sample binding to peptide divided by the specific OD450 or cpm of NHS sample binding to peptide, which value is less than 2) | - (specific OD450 or cpm of sera sample binding to peptide divided by the specific OD450 or cpm of NHS sample binding to peptide, which value is less than 2) | - (specific OD450 or cpm of sera sample binding to peptide divided by the specific OD450 or cpm of NHS sample binding to peptide, which value is less than 2) | - (specific OD450 or cpm of sera sample binding to peptide divided by the specific OD450 or cpm of NHS sample binding to peptide, which value is less than 2) | - (specific OD450 or cpm of sera sample binding to peptide divided by the specific OD450 or cpm of NHS sample binding to peptide, which value is less than 2) | - (specific OD450 or cpm of sera sample binding to peptide divided by the specific OD450 or cpm of NHS sample binding to peptide, which value is less than 2) | - (specific OD450 or cpm of sera sample binding to peptide divided by the specific OD450 or cpm of NHS sample binding to peptide, which value is less than 2) | + (which value is between 2 to 3) | - (specific OD450 or cpm of sera sample binding to peptide divided by the specific OD450 or cpm of NHS sample binding to peptide, which value is less than 2) | - (specific OD450 or cpm of sera sample binding to peptide divided by the specific OD450 or cpm of NHS sample binding to peptide, which value is less than 2) | - (specific OD450 or cpm of sera sample binding to peptide divided by the specific OD450 or cpm of NHS sample binding to peptide, which value is less than 2) | - (specific OD450 or cpm of sera sample binding to peptide divided by the specific OD450 or cpm of NHS sample binding to peptide, which value is less than 2) | - (specific OD450 or cpm of sera sample binding to peptide divided by the specific OD450 or cpm of NHS sample binding to peptide, which value is less than 2) | - (specific OD450 or cpm of sera sample binding to peptide divided by the specific OD450 or cpm of NHS sample binding to peptide, which value is less than 2) | - (specific OD450 or cpm of sera sample binding to peptide divided by the specific OD450 or cpm of NHS sample binding to peptide, which value is less than 2) | Binding of maternal HIV+ serum to peptide (sera/NHS ratio) [2, 19]: - (specific OD450 or cpm of sera sample binding to peptide divided by the specific OD450 or cpm of NHS sample binding to peptide, which value is less than 2); Binding of maternal HIV+ serum to peptide (sera/NHS ratio) [2, 20]: - (specific OD450 or cpm of sera sample binding to peptide divided by the specific OD450 or cpm of NHS sample binding to peptide, which value is less than 2); Binding of maternal HIV+ serum to peptide (sera/NHS ratio) [2, 21]: - (specific OD450 or cpm of sera sample binding to peptide divided by the specific OD450 or cpm of NHS sample binding to peptide, which value is less than 2); Binding of maternal HIV+ serum to peptide (sera/NHS ratio) [2, 22]: - (specific OD450 or cpm of sera sample binding to peptide divided by the specific OD450 or cpm of NHS sample binding to peptide, which value is less than 2)
2 | SSGRMIMEKGEIKNCSFNIST [Peptide 59] | 0 | 0 | 0 | 0 | - (specific OD450 or cpm of sera sample binding to peptide divided by the specific OD450 or cpm of NHS sample binding to peptide, which value is less than 2) | - (specific OD450 or cpm of sera sample binding to peptide divided by the specific OD450 or cpm of NHS sample binding to peptide, which value is less than 2) | - (specific OD450 or cpm of sera sample binding to peptide divided by the specific OD450 or cpm of NHS sample binding to peptide, which value is less than 2) | - (specific OD450 or cpm of sera sample binding to peptide divided by the specific OD450 or cpm of NHS sample binding to peptide, which value is less than 2) | - (specific OD450 or cpm of sera sample binding to peptide divided by the specific OD450 or cpm of NHS sample binding to peptide, which value is less than 2) | - (specific OD450 or cpm of sera sample binding to peptide divided by the specific OD450 or cpm of NHS sample binding to peptide, which value is less than 2) | - (specific OD450 or cpm of sera sample binding to peptide divided by the specific OD450 or cpm of NHS sample binding to peptide, which value is less than 2) | - (specific OD450 or cpm of sera sample binding to peptide divided by the specific OD450 or cpm of NHS sample binding to peptide, which value is less than 2) | - (specific OD450 or cpm of sera sample binding to peptide divided by the specific OD450 or cpm of NHS sample binding to peptide, which value is less than 2) | - (specific OD450 or cpm of sera sample binding to peptide divided by the specific OD450 or cpm of NHS sample binding to peptide, which value is less than 2) | - (specific OD450 or cpm of sera sample binding to peptide divided by the specific OD450 or cpm of NHS sample binding to peptide, which value is less than 2) | - (specific OD450 or cpm of sera sample binding to peptide divided by the specific OD450 or cpm of NHS sample binding to peptide, which value is less than 2) | - (specific OD450 or cpm of sera sample binding to peptide divided by the specific OD450 or cpm of NHS sample binding to peptide, which value is less than 2) | - (specific OD450 or cpm of sera sample binding to peptide divided by the specific OD450 or cpm of NHS sample binding to peptide, which value is less than 2) | - (specific OD450 or cpm of sera sample binding to peptide divided by the specific OD450 or cpm of NHS sample binding to peptide, which value is less than 2) | - (specific OD450 or cpm of sera sample binding to peptide divided by the specific OD450 or cpm of NHS sample binding to peptide, which value is less than 2) | Binding of maternal sera to peptide (in words) ([2]; Example 3): No binding; Binding of maternal HIV+ serum to peptide (sera/NHS ratio) [2, 19]: - (specific OD450 or cpm of sera sample binding to peptide divided by the specific OD450 or cpm of NHS sample binding to peptide, which value is less than 2); Binding of maternal HIV+ serum to peptide (sera/NHS ratio) [2, 20]: - (specific OD450 or cpm of sera sample binding to peptide divided by the specific OD450 or cpm of NHS sample binding to peptide, which value is less than 2); Binding of maternal HIV+ serum to peptide (sera/NHS ratio) [2, 21]: - (specific OD450 or cpm of sera sample binding to peptide divided by the specific OD450 or cpm of NHS sample binding to peptide, which value is less than 2); Binding of maternal HIV+ serum to peptide (sera/NHS ratio) [2, 22]: - (specific OD450 or cpm of sera sample binding to peptide divided by the specific OD450 or cpm of NHS sample binding to peptide, which value is less than 2)
